Results: patent publication US20240091358A1, “[…] REGULATION” (Senti Biosciences, Inc., priority 2021, published 2024)

B1: Construct 1585: SFFV promoter-hIL-10-ADAM10/17 cleavage site-PDGFRb TM-A(EAAAK)3A-d913 degron; minTK-hIL-12 (opposite direction); SEQ ID NO: 187 (nucleic acid)
DNA: CCGATAAAATAAAAGATTTTATTTAGTCTCCAGAAAAAGGGGGGAATGAAAGACCCCACCTGTAGGTTTGGCAAGCTAGCTGCAGTAACGCCATTTTGCAAGGCATGGAAAAATACCAAACCAAGAATAGAGAAGTTCAGATCAAGGGCGGGTACATGAAAATAGCTAACGTTGGGCCAAACAGGATATCTGCGGTGAGCAGTTTCGGCCCCGGCCCGGGGCCAAGAACAGATGGTCACCGCAGTTTCGGCCCCGGCCCGAGGCCAAGAACAGATGGTCCCCAGATATGGCCCAACCCTCAGCAGTTTCTTAAGACCCATCAGATGTTTCCAGGCTCCCCCAAGGACCTGAAATGACCCTGCGCCTTATTTGAATTAACCAATCAGCCTGCTTCTCGCTTCTGTTCGCGCGCTTCTGCTTCCCGAGCTCTATAAAAGAGCTCACAACCCCTCACTCGGCGCGCCAGTCCTCCGACAGACTGAGTCGCCCGGGGGGGATCTGGAGCTCTCGAGAATTCATGCACTCATCTGCTCTCCTTTGCTGTCTCGTGCTCCTGACTGGAGTACGCGCGTCACCCGGTCAAGGGACACAAAGCGAAAACTCCTGTACGCATTTTCCGGGCAACCTCCCTAATATGCTTCGCGACTTGCGAGATGCATTTTCCAGGGTGAAGACCTTCTTCCAGATGAAGGACCAGTTGGATAATCTTCTCCTCAAGGAGTCTCTTTTGGAGGACTTCAAGGGCTACCTGGGATGTCAAGCCCTTAGCGAAATGATTCAGTTTTATCTTGAAGAGGTCATGCCGCAAGCTGAGAACCAGGACCCCGACATAAAAGCCCATGTGAACTCCCTCGGCGAGAATTTGAAGACGCTGAGACTTAGATTGAGAAGATGTCATAGATTTCTCCCATGTGAGAATAAGTCCAAGGCTGTCGAGCAGGTTAAGAATGCTTTCAATAAGTTGCAGGAAAAAGGAATCTATAAGGCAATGAGCGAGTTTGACATCTTTATTAACTACATTGAGGCTTATATGA
modifications: misc_feature 1..1034 Description of Artificial Sequence: Synthetic polynucleotide
B2: Construct 1584: SFFV promoter-hIL-10; minTK-hIL-12 (opposite direction); native hIL-10 without a degron; SEQ ID NO: 186 (nucleic acid)
DNA: CCGATAAAATAAAAGATTTTATTTAGTCTCCAGAAAAAGGGGGGAATGAAAGACCCCACCTGTAGGTTTGGCAAGCTAGCTGCAGTAACGCCATTTTGCAAGGCATGGAAAAATACCAAACCAAGAATAGAGAAGTTCAGATCAAGGGCGGGTACATGAAAATAGCTAACGTTGGGCCAAACAGGATATCTGCGGTGAGCAGTTTCGGCCCCGGCCCGGGGCCAAGAACAGATGGTCACCGCAGTTTCGGCCCCGGCCCGAGGCCAAGAACAGATGGTCCCCAGATATGGCCCAACCCTCAGCAGTTTCTTAAGACCCATCAGATGTTTCCAGGCTCCCCCAAGGACCTGAAATGACCCTGCGCCTTATTTGAATTAACCAATCAGCCTGCTTCTCGCTTCTGTTCGCGCGCTTCTGCTTCCCGAGCTCTATAAAAGAGCTCACAACCCCTCACTCGGCGCGCCAGTCCTCCGACAGACTGAGTCGCCCGGGGGGGATCTGGAGCTCTCGAGAATTCATGCACTCATCTGCTCTCCTTTGCTGTCTCGTGCTCCTGACTGGAGTACGCGCGTCACCCGGTCAAGGGACACAAAGCGAAAACTCCTGTACGCATTTTCCGGGCAACCTCCCTAATATGCTTCGCGACTTGCGAGATGCATTTTCCAGGGTGAAGACCTTCTTCCAGATGAAGGACCAGTTGGATAATCTTCTCCTCAAGGAGTCTCTTTTGGAGGACTTCAAGGGCTACCTGGGATGTCAAGCCCTTAGCGAAATGATTCAGTTTTATCTTGAAGAGGTCATGCCGCAAGCTGAGAACCAGGACCCCGACATAAAAGCCCATGTGAACTCCCTCGGCGAGAATTTGAAGACGCTGAGACTTAGATTGAGAAGATGTCATAGATTTCTCCCATGTGAGAATAAGTCCAAGGCTGTCGAGCAGGTTAAGAATGCTTTCAATAAGTTGCAGGAAAAAGGAATCTATAAGGCAATGAGCGAGTTTGACATCTTTATTAACTACATTGAGGCTTATATGACTATGAAAATTAGAAACTAA
modifications: misc_feature 1..1054 Description of Artificial Sequence: Synthetic polynucleotide

Experiments:
[1] = tested on: Hep3B cells; assay: Nanoluciferase activity (Promega Nanoglo) in Hep3B cells transduced with AAV2/AAV8 nanoluciferase-degron constructs, with or without IMiD (Example 5); format: cell-based; conditions: for luciferase activity relative to cells not treated / minimal effective dose in vitro: Hep3B cells transduced with AAV2 construct; for luciferase activity relative to cells not treated: 1-0.01 μM drug, all concentrations tested; for minimal effective dose in vitro: concentration that may be approaching the minimal effective dose; for Fold change relative to no drug: decrease in nanoluciferase activity, Hep3B cells transduced with AAV2 nanoluciferase/degron construct
Procedure: AAV2 and AAV8 viral vector constructs were generated that expressed nanoluciferase as a chimeric protein fused to a C-terminal degron using an A(EAAK)3A linker (SEQ ID NO: 193). Constructs were generated using packaging vectors with either AAV2 or AAV8 capsid protein.
Luciferase activity was assessed following the general protocol below: • Day 0: Hep3b cells were plated at 50,000 cells per well in a 96 well plate • Day 1: 1e6 vg/cell AAV2 or 3e6 vg/cell AAV8 was added to cells in presence or absence of 1 μM Lenalidomide (or 1 μM-0.01 μM Lenalidomide or Pomalidomide) • Day 3: Cells were lysed and luciferase activity was measured with Promega Nanoglo kit

[2] = tested on: donor-derived T cells; assay: hIL-10 secretion from donor T cells by Luminex assay, normalized to hIL-12 (Example 4); format: cell-based; conditions: for % 1 uM Len of no drug (IL10/IL12 ratio) / Mean IL10/IL12 ratio (1 uM Len) / Mean IL10/IL12 ratio (no drug): donor T cell supernatant; for % 1 uM Len of no drug (IL10/IL12 ratio): 1 uM lenalidomide relative to no drug; for Mean IL10/IL12 ratio (1 uM Len): 1 uM lenalidomide; for Mean IL10/IL12 ratio (1 uM Len) / Mean IL10/IL12 ratio (no drug): hIL-10 normalized to hIL-12
Procedure: The viral vectors also expressed human IL-12 (hIL-12) from a separate promoter as a normalization control for cell number, viability, and transduction efficiency.
Cytokine secretion was assessed following the general protocol below: • Day 0: Donor T cells (enriched as previously described above) were thawed and activated with CD3/CD28 Dynabeads • Day 1: T cells were transduced with viral constructs (100 k GoStix values per 1e6 cells) • Day 2: Media was changed • Day 4: Cells were passaged • Day 7: Cells were spun down, washed 3× with media, then resuspended in media+/−1 μM Lenalidomide • Day 9: Supernatants were harvested and were evaluated for hIL10 and hIL12 concentration by Luminex assay

| Molecule | luciferase activity relative to cells not treated [1] | minimal effective dose in vitro [1] [µM] | Fold change relative to no drug ([1]; drug dose 0.01 uM) [fold] | Fold change relative to no drug ([1]; drug dose 0.05 uM) [fold] | Fold change relative to no drug ([1]; drug dose 0.1 uM) [fold] | Fold change relative to no drug ([1]; drug dose 0.5 uM) [fold] | Fold change relative to no drug ([1]; drug dose 1 uM) [fold] | % 1 uM Len of no drug (IL10/IL12 ratio) [2] [%] | Mean IL10/IL12 ratio (1 uM Len) [2] | Mean IL10/IL12 ratio (no drug) [2] | hIL-10 secretion upon addition of lenalidomide ([2]; donor-derived T cells, 1 μM lenalidomide) |
| --- | --- | --- | --- | --- | --- | --- | --- | --- | --- | --- | --- |
| Nc1cccc2c1CN(C1CCC(=O)NC1=O)C2=O (stereo not drawn) [lenalidomide] | significant decreases in luciferase activity | ~0.01 | 6 | 18 | 25 | 35 | 60 |  |  |  |  |
| Nc1cccc2c1C(=O)N(C1CCC(=O)NC1=O)C2=O (stereo not drawn) [pomalidomide] | significant decreases in luciferase activity | ~0.01 | 4 | 12 | 19 | 18 | 19 |  |  |  |  |
| B1 |  |  |  |  |  |  |  | 56 | 1.65 | 2.97 |  |
| B2 |  |  |  |  |  |  |  | 131 | 4.09 | 3.11 | did not result in reduced secretion |
